Target: Glycogen synthase kinase-3 beta (Homo sapiens, UniProt P49841)
Assay: concentration-response blocking of human GSK3B – biochemical, luminescence, cell-free homogeneous, retest, dose response (AID 434954)

Glycogen synthase kinase-3 beta, sequence (P49841 whole entry): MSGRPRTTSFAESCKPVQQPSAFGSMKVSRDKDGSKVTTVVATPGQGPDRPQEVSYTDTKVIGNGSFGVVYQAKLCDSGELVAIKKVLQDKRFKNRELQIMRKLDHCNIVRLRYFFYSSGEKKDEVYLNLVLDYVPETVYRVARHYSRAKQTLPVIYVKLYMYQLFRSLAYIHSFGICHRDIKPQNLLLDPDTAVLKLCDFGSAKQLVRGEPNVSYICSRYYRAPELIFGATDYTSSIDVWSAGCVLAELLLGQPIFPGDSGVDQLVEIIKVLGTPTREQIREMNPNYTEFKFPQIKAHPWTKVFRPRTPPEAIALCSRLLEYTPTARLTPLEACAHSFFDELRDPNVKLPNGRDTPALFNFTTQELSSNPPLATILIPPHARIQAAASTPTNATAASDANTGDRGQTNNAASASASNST

Row | Compound | EC50 [µM]
1 | C[O+]=N[CH-]c1ccc(Oc2ccc(C)cc2)c([N+](=O)[O-])c1 [4-(4-methylphenoxy)-3-nitrobenzenecarbaldehyde O-methyloxime] | > 300
2 | COc1ccc(C)cc1NC(=O)CN(C)S(=O)(=O)c1ccc2c(c1)CC(C)N2C(C)=O (stereo not given) [MLS001122753] | > 300
3 | O=Cc1ccc(Oc2nc(Cl)ncc2F)cc1 [4-[(2-chloro-5-fluoro-4-pyrimidinyl)oxy]benzaldehyde] | > 300
4 | Cc1c(C(=O)O)sc2c1c(=O)n(Cc1ccccc1)c(=O)n2C [1,5-dimethyl-2,4-dioxo-3-(phenylmethyl)-6-thieno[2,3-d]pyrimidinecarboxylic acid] | > 300
5 | CCc1ccc(C2CC(c3ccc(C)cc3)Nc3nc(N)nn32)cc1 (stereo not given) | > 300
6 | CC(C)(C)C(=O)c1cnc(Nc2ccccc2)s1 [1-(2-anilino-1,3-thiazol-5-yl)-2,2-dimethylpropan-1-one] | > 300
7 | COc1ccc(-c2nn(-c3ccccc3)cc2C=Nn2c(O)csc2=S)cc1 [MLS000558856] | > 300
8 | COc1cccc2c1cc1c(=O)n(CC(=O)NCCCc3ccccc3)nc(C)n12 [MLS001076397] | > 300
9 | O=C(Nc1ccc([N+](=O)[O-])cn1)C1CC1 [SMR000227137] | 23.1
10 | CC(=O)N1CCC(=O)Nc2ccc([N+](=O)[O-])cc21 [MLS000728217] | > 300
11 | CC(C)(C)c1ccc(C=Nn2cnnc2)cc1 [MLS000660819] | > 300
12 | COc1ccc(-c2nn(-c3ccccc3)cc2CO)cc1OC [MLS000110763] | > 300
13 | O=C(Nc1cccc2c1C(=O)NC2=O)c1ccccc1[N+](=O)[O-] [N-(1,3-dioxo-4-isoindolyl)-2-nitrobenzamide] | > 300
14 | O=C(O)/C=C/c1cn(-c2ccccc2)nc1-c1cccc([N+](=O)[O-])c1 [MLS000774824] | > 300
15 | Cc1nc(Nc2ccccc2)sc1C [4,5-dimethyl-N-phenyl-1,3-thiazol-2-amine] | > 300
16 | CCCCn1nc(NC(=O)CC)c2cc3cc(OC)ccc3nc21 [N-(1-butyl-6-methoxy-pyrazolo[3,4-b]quinolin-3-yl)propanamide] | 43.6
17 | COc1cccc(/C=C2/Sc3ccc(C(=O)NCCN4CCCCCC4)cc3NC2=O)c1 [MLS001030753] | 94.6
18 | O=C(O)c1cc(-c2ccc(C=NN3C(=O)C4C5C=CC(CC5)C4C3=O)o2)ccc1Cl (stereo not given) [SMR000274176] | > 300
19 | O=c1[nH]c(=S)n(-c2ccccc2F)c(O)c1C=NCc1ccco1 [(5E)-1-(2-fluorophenyl)-5-[(furan-2-ylmethylamino)methylidene]-2-sulfanylidene-1,3-diazinane-4,6-dione] | 80.2
20 | COc1cc(-c2n[nH]c3c2C(c2ccco2)C(C#N)C(=N)O3)cc(OC)c1OC (stereo not given) [MLS000698887] | 8.59
21 | CCCN(CCC)Cc1c(C(=O)NN=Cc2c[nH]c3ccccc23)nnn1-c1nonc1N | > 300
22 | Cc1ccc(-c2nc(Nc3cccc(O)c3)c3ccccc3n2)cc1 [MLS001196546] | > 300
23 | O=C(NCCCN1CCCC1=O)c1c(O)n2ccsc2nc1=O [5-hydroxy-7-oxo-N-[3-(2-oxo-1-pyrrolidinyl)propyl]-6-thiazolo[3,2-a]pyrimidinecarboxamide] | > 300
24 | Cc1cccc(NC(=O)C(C)n2cc([N+](=O)[O-])cn2)n1 (stereo not given) [N-(6-methylpyridin-2-yl)-2-(4-nitro-1H-pyrazol-1-yl)propanamide] | > 300
25 | CCCCn1nc(NC(=O)c2cccs2)c2cc3cc(OC)ccc3nc21 [SMR000046614] | 9.23
26 | O=C(Cn1cc2c(n1)CCCCC2)NC1CCN(Cc2ccccc2)CC1 [N-(1-benzylpiperidin-4-yl)-2-(5,6,7,8-tetrahydro-4H-cyclohepta[c]pyrazol-2-yl)acetamide] | > 300
27 | COc1ccc2occ(C(C)=O)c2c1 [1-(5-methoxy-3-benzofuranyl)ethanone] | > 300
28 | CCOC(=O)c1cnc2c(OC)cccc2c1N1CCN(c2ccc(OC)cc2)CC1 | > 300
29 | COc1cccc(N=Nc2c(N)[nH][nH]c2=O)c1 [SMR000231776] | 19.9
30 | O=C(Nc1ccccc1C(=O)O)c1nnc[nH]1 | > 300

From BindingDB's records for doi:10.7270/Q2TX3CTT (Broad Institute, 2010)
